Data: patent publication US20100003724A1, “CHEMICALLY MODIFIED NUCLEOSIDE 5'-TRIPHOSPHATES FOR THERMALLY INITIATED AMPLIFICATION OF NUCLEIC ACID” (priority 2008, published 2010)
Like-named read-outs stand apart in the source and are kept apart here.

Experiments:
[1] = target: Klenow (exo-) DNA polymerase (Escherichia coli, UniProt P00582, D355A/E357A); conditions: for substrate for Klenow (exo-) DNA polymerase (incorporation and extension): after a 40 minute preheating step at 95° C.; for substrate for Klenow (exo-) DNA polymerase (incorporation into the primer): room temperature, unheated 3′-substituted dTTP
Klenow (exo-) DNA polymerase, sequence (P00582 324-928 D355A/E357A): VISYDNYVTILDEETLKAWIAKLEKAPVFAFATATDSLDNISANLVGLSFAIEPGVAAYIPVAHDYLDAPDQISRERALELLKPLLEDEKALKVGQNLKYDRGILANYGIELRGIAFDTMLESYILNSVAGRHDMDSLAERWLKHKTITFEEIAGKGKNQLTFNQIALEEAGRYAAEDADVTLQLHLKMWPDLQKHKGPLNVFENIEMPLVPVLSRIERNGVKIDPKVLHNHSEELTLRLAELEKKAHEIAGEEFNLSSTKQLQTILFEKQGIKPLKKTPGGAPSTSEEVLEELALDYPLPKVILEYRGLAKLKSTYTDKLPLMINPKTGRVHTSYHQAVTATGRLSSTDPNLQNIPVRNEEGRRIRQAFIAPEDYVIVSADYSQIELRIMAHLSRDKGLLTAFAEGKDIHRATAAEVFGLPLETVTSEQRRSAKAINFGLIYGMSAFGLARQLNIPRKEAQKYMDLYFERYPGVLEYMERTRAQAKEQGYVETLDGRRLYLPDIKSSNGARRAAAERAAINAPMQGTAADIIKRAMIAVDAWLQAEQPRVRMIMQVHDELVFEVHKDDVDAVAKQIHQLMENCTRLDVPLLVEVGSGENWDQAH
Experimental: The ability of Klenow (exo-) DNA polymerase to perform room temperature primer extensions of a pre-annealed primer/template duplex was evaluated in 50 mM NaCl, 10 mM Tris-HCl (pH 7.9), 10 mM MgCl, 1 mM DTT, 0.5 units of enzyme, 0.2 mM dATP and in the presence of one of the following 3′-substituted dTTP derivatives: 3′-THP-dTTP, 3′-MTHP-dTTP or 3′-THF-dTTP (FIG. 4 (top)).

[2] = for Concentration of unmodified dTTP: 250 μM solution of 3′-substituted dTTP, 95° C., PCR buffer (pH 8.4 at 25° C.); for cleavage of the 3′-ester group: within 60 minutes of incubation
Experimental: Conversion of the 3′-substituted dTTP to the corresponding unmodified dTTP was investigated in PCR buffer (pH 8.4 at 25° C., Table 1) at 20° C. and 95° C. The reactions were monitored by analysis of the incubated mixtures by reverse-phase and anion-exchange HPLC.

[3] = system: Lambda DNA and HIV-1 DNA systems; conditions: one 3′-substituted dTTP derivative in place of natural dTTP; compared to all four natural dNTPs
Experimental: For the Lambda DNA and HIV-1 DNA systems (Table 2), PCR conditions were used where non-specific amplification products, including primer dimers, readily formed in the presence of template. These conditions employed 1 μM concentration of both the forward and reverse oligonucleotide primers, 10 HIV-1 or 10,000 Lambda DNA copies of template, 0.2 mM each of dNTP or 3′-substituted dNTP, and 2.0 mM MgCl2. Each mixture contained 50 ng of Human Genomic DNA. The thermal cycling parameters were as follows: 95° C. for 2 min; 40 cycles of [95° C. for 40 sec; 56° C. for 30 sec; 72° C. for 2 min]; 72° C. for 7 min.

[4] = target: Taq DNA polymerase (Thermus aquaticus, UniProt P19821); experiment: Primer extension with Taq DNA polymerase at room temperature; conditions: 25 units of enzyme
Taq DNA polymerase, sequence (P19821 whole entry, the tested form may be a part): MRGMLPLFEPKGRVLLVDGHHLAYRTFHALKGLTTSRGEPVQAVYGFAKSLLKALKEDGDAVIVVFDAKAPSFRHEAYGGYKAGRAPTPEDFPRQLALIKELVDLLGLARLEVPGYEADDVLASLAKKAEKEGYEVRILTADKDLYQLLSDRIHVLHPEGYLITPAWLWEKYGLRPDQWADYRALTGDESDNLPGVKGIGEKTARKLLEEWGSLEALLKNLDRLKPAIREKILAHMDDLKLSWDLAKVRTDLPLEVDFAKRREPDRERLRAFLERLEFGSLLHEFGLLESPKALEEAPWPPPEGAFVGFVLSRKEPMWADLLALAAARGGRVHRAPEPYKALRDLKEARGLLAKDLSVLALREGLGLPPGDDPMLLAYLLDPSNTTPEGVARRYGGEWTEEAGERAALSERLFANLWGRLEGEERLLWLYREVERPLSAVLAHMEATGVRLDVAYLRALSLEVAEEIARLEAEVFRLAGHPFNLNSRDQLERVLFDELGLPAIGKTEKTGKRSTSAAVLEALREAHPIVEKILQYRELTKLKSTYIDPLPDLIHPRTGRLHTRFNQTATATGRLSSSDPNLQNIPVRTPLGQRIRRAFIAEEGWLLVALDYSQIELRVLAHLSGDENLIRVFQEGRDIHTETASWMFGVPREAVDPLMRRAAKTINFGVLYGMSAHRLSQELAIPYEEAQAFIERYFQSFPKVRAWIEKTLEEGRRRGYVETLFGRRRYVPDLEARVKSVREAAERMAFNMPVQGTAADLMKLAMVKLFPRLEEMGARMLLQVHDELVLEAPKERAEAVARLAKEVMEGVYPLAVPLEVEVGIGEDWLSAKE
Excerpt: The extension experiments were repeated with Taq DNA polymerase at room temperature utilizing 25 units of enzyme and either 3′-THF-dTTP or 3′-Ac-dTTP.

[5] = system: HIV-1 system (365 bp HIV-1 fragment); experiment: Hot Start PCR with 3′-THF-dNTPs substituted for natural dNTPs; type: biochemical; conditions: 3′-THF dNTP substituted for its natural dNTP
Experimental: Each mixture contained 50 ng of Human Genomic DNA.
All permutations of substitution of one, two, three or four 3′-THF-dNTPs (from the group of 3′-THF-dATP, […], 3′-THF-dCTP and 3′-THF-dTTP) were examined for their natural counterpart and the resultant effect on reducing primer dimer formation. […] A combined substitution of two or more 3′-THF derivatives of dNTPs for natural dNTPs further improved PCR performance. Thus, combination of 3′-THF-dTTP and 3′-THF-dATP, as a replacement for dTTP and dATP, nearly completely eliminated non-specific amplification products in the HIV-1 system (approximately 10-fold improvement, FIG. 7). Overall, there was a strong correlation between using more than one type of 3′-substituted dNTP in a PCR mixture with an efficiency and specificity of amplicon production.

Row | SMILES | substrate for Klenow (exo-) DNA polymerase (incorporation and extension) [1] | substrate for Klenow (exo-) DNA polymerase (incorporation into the primer) [1] | Concentration of unmodified dTTP ([2]; 2 min) | Concentration of unmodified dTTP ([2]; 10 min) | Concentration of unmodified dTTP ([2]; 20 min) | overall PCR performance [3] | substrate for Taq DNA polymerase [4] | cleavage of the 3′-acetyl group ([2]; PCR buffer, room temperature, after 24 hours of incubation) | PCR performance (non-specific amplification products, specific amplicon formation) [5] | cleavage of the 3′-ester group ([2]; PCR buffer, room temperature)
1 | Cc1cn([C@H]2C[C@H](OC3CCCCO3)[C@@H](COP(=O)(O)OP(=O)(O)OP(=O)(O)O)O2)c(=O)[nH]c1=O (stereo partly drawn) [3′-THP-dTTP] | became substrates for enzyme | not substrates | ≦1 μM | 10 µM | 16 µM | not as good as with natural dTTP | – | – | – | –
2 | COC1(O[C@H]2C[C@H](n3cc(C)c(=O)[nH]c3=O)O[C@@H]2COP(=O)(O)OP(=O)(O)OP(=O)(O)O)CCOCC1 [3′-MTHP-dTTP] | became substrates for enzyme | not substrates | 2 µM | 21 µM | 47 µM | – | – | – | – | –
3 | CC(=O)OC1CC(n2cc(C)c(=O)[nH]c2=O)OC1COP(=O)(O)OP(=O)(O)OP(=O)(O)O (stereo not drawn) [3′-Ac-dTTP, 3′-O-acetyl-dTTP] | – | not a substrate | 0 µM | 5 µM | 18 µM | not as good as with natural dTTP | not substrates | 6% | – | –
4 | Nc1ncnc2c1ncn2C1CC(OC2CCCO2)C(COP(=O)(O)OP(=O)(O)OP(=O)(O)O)O1 (stereo not drawn) [3′-THF-dATP] | – | – | – | – | – | – | – | – | strong reduction of both non-specific amplification products and an increase of specific amplicon formation | –
5 | COCC(=O)O[C@H]1C[C@H](n2cc(C)c(=O)[nH]c2=O)O[C@@H]1COP(=O)(O)OP(=O)(O)OP(=O)(O)O [3′-O[CH3OAc]] | – | – | 35 µM | 140 µM | 195 µM | – | – | – | – | 4%
6 | Cc1cn([C@H]2C[C@H](OC(=O)COc3ccccc3)[C@@H](COP(=O)(O)OP(=O)(O)OP(=O)(O)O)O2)c(=O)[nH]c1=O [3′-O[PhOAc]] | – | – | 50 µM | 170 µM | 209 µM | – | – | – | – | 10%
7 | Cc1cn([C@H]2C[C@H](OC3CCCO3)[C@@H](COP(=O)(O)OP(=O)(O)OP(=O)(O)O)O2)c(=O)[nH]c1=O (stereo partly drawn) [3′-THF-dTTP] | became substrates for enzyme | not substrates | 7 µM | 39 µM | 57 µM | – | not substrates | – | – | –
